Reference: US8722676B2, “Bicyclic piperazine compounds” (Genentech, Inc., priority 2011, dated 2014)

test system: production of CD69 by B lymphocytes in human whole blood activated with goat F(ab')2 anti-human IgM; test: CD69 Whole Blood Assay (CD69 Hu Blood FACS); format: cell-based; details: anti-IgM stimulated, 20 hour incubation, CD69+ of CD20+ cells, Table 1
From the text: A CD69 Whole Blood Assay can be conducted on Formula I compounds to determine the ability of compounds to inhibit the production of CD69 by B lymphocytes in human whole blood activated by crosslinking surface IgM with goat F(ab′)2 anti-human IgM (Example 907). CD69 is a type II C-type lectin involved in lymphocyte migration and cytokine secretion. CD69 expression represents one of the earliest available indicators of leukocyte activation and its rapid induction occurs through transcriptional activation (Vazquez et al (2009) Jour. of Immunology Published Oct. 19, 2009, doi:10.4049/jimmunol.0900839). Concentration-dependent inhibition of antigen receptor stimulation by selective Btk inhibitors induces cell surface expression of the lymphocyte activation marker CD69 (Honigberg et al (2010) Proc. Natl. Acad. Sci. 107(29):13075-13080). Thus, CD69 inhibition by selective Btk inhibitors may be correlated with therapeutic efficacy of certain B-cell disorders.
Human blood is obtained from healthy volunteers, with the following restrictions: 1 week drug-free, non-smokers. Blood (approximately 20 mls to test 8 compounds) is collected by venipuncture into Vacutainer® (Becton, Dickinson and Co.) tubes with sodium heparin.
Solutions of Formula I compounds at 10 mM in DMSO are diluted 1:10 in 100% DMSO, then are diluted by three-fold serial dilutions in 100% DMSO for a ten point dose-response curve. The compounds are further diluted 1:10 in PBS and then an aliquot of 5.5 μl of each compound is added in duplicate to a 2 ml 96-well plate; 5.5 μl of 10% DMSO in PBS is added as control and no-stimulus wells. Human whole blood—HWB (100 μl) is added to each well. After mixing the plates are incubated at 37° C., 5% CO2, 100% humidity for 30 minutes. Goat F(ab′)2 anti-human IgM (10 μl of a 500 μg/ml solution, 50 μg/ml final) is added to each well (except the no-stimulus wells) with mixing and the plates are incubated for an additional 20 hours. At the end of the 20 hour incubation, samples are incubated with fluorescent labeled antibodies for 30 minutes, at 37° C., 5% CO2, 100% humidity. Include induced control, unstained and single stains for compensation adjustments and initial voltage settings. Samples are then lysed with PharM Lyse™ (BD Biosciences Pharmingen) according to the manufacturer's instructions. Samples are then transferred to a 96 well plate suitable to be run on the BD Biosciences HTS 96 well system on the LSRII machine. Data acquired and Mean Fluorescence Intensity values were obtained using BD Biosciences DIVA Software. Results are initially analyzed by FACS analysis software (Flow Jo).

| Compound | CD69 Hu Blood FACS IC70 |
| --- | --- |
| CN1CCN(c2ccc(Nc3nc(-c4cc(F)cc(N5CCn6c(cc7c6CCCC7)C5=O)c4CO)cn4ccnc34)nc2)CC1 [Compound 106, 2-(5-Fluoro-2-(hydroxymethyl)-3-(8-(5-(4-methylpiperazin-1-yl)pyridin-2-ylamino)imidazo[1,2-a]pyrazin-6-yl)phenyl)-3,4,6,7,8,9-hexahydropyrazino[1,2-a]indol-1(2H)-one] | 814 nM |
| O=C1c2cc3c(n2CCN1c1nccc(-c2cc(Nc4ccc(N5CCN(C6COC6)CC5)cn4)c4nccn4n2)c1CO)CCCC3 [Compound 114, 2-(3-(Hydroxymethyl)-4-(8-(5-(4-(oxetan-3-yl)piperazin-1-yl)pyridin-2-ylamino)imidazo[1,2-b]pyridazin-6-yl)pyridin-2-yl)-3,4,6,7,8,9-hexahydropyrazino[1,2-a]indol-1(2H)-one] | 118 nM |
| O=c1c2sc3c(c2cnn1-c1cc(F)cc(-c2cc(Nc4ccc(N5CCN(C6COC6)CC5)cn4)c4nccn4n2)c1CO)CCCC3 [Compound 112, 5-[5-Fluoro-2-(hydroxymethyl)-3-(8-(5-(4-(oxetan-3-yl)piperazin-1-yl)pyridin-2-ylamino)imidazo[1,2-b]pyridazin-6-yl)phenyl]-8-thia-4,5-diazatricyclo-[7.4.0.0^2,7]trideca-1(9),2(7),3-trien-6-one] | 126 nM |
| O=C1c2sc3c(c2CCN1c1cc(F)cc(-c2cc(Nc4ccc(N5CCN(C6COC6)CC5)cn4)c4nccn4n2)c1CO)CCCC3 [Compound 111, 5-[5-Fluoro-2-(hydroxymethyl)-3-(8-(5-(4-(oxetan-3-yl)piperazin-1-yl)pyridin-2-ylamino)imidazo[1,2-b]pyridazin-6-yl)phenyl]-8-thia-5-azatricyclo[7.4.0.0^2,7]trideca-1(9),2(7)-dien-6-one] | 313 nM |
| CC1(C)Cc2cc3n(c2C1)CCN(c1cc(F)cc(-c2cc(Nc4ccc(N5CCN(C6COC6)CC5)cn4)c4nccn4n2)c1CO)C3=O [Compound 110, 10-[5-Fluoro-2-(hydroxymethyl)-3-(8-(5-(4-(oxetan-3-yl)piperazin-1-yl)pyridin-2-ylamino)imidazo[1,2-b]pyridazin-6-yl)phenyl]-4,4-dimethyl-1,10-diazatricyclo[6.4.0.0^2,6]dodeca-2(6),7-dien-9-one] | 15 nM |
| Cn1cnc2c(Nc3ccc(N4CCN(C5COC5)CC4)cn3)cc(-c3cc(F)cc(N4CCn5c(cc6c5CCCC6)C4=O)c3CO)cc21 [Compound 109, 2-(5-Fluoro-2-(hydroxymethyl)-3-(3-methyl-7-(5-(4-(oxetan-3-yl)piperazin-1-yl)pyridin-2-ylamino)-3H-benzo[d]imidazol-5-yl)phenyl)-3,4,6,7,8,9-hexahydropyrazino[1,2-a]indol-1(2H)-one] | 1300 nM |
| O=C1c2cc3c(n2CCN1c1cc(F)cc(-c2cc(Nc4ccc(N5CCN(C6COC6)CC5)cn4)c4ncnn4c2)c1CO)CCCC3 [Compound 108, 2-(5-Fluoro-2-(hydroxymethyl)-3-(8-(5-(4-(oxetan-3-yl)piperazin-1-yl)pyridin-2-ylamino)-[1,2,4]triazolo[1,5-a]pyridin-6-yl)phenyl)-3,4,6,7,8,9-hexahydropyrazino[1,2-a]indol-1(2H)-one] | 58 nM |
| CN1CCN(c2ccc(Nc3cc(-c4cc(F)cc(N5CCn6c(cc7c6CCCC7)C5=O)c4CO)cn4ccnc34)nc2)CC1 [Compound 101, 2-(5-Fluoro-2-(hydroxymethyl)-3-(8-(5-(4-methylpiperazin-1-yl)pyridin-2-ylamino)imidazo[1,2-a]pyridin-6-yl)phenyl)-3,4,6,7,8,9-hexahydropyrazino[1,2-a]indol-1(2H)-one] | 7 nM |
| CN1CCN(c2ccc(Nc3cc(-c4cc(F)cc(N5CCn6c(cc7c6CCCC7)C5=O)c4CO)nn4ccnc34)nc2)CC1 [Compound 104, 2-(5-Fluoro-2-(hydroxymethyl)-3-(8-(5-(4-methylpiperazin-1-yl)pyridin-2-ylamino)imidazo[1,2-b]pyridazin-6-yl)phenyl)-3,4,6,7,8,9-hexahydropyrazino[1,2-a]indol-1(2H)-one] | 96 nM |
| O=C1c2cc3c(n2CCN1c1cc(F)cc(-c2cn4ccnc4c(Nc4ccc(N5CCN(C6COC6)CC5)cn4)n2)c1CO)CCCC3 [Compound 107, 2-(5-Fluoro-2-(hydroxymethyl)-3-(8-(5-(4-(oxetan-3-yl)piperazin-1-yl)pyridin-2-ylamino)imidazo[1,2-a]pyrazin-6-yl)phenyl)-3,4,6,7,8,9-hexahydro-pyrazino[1,2-a]indol-1(2H)-one] | 939 nM |
| CC1(C)Cc2sc3c(c2C1)CCN(c1cc(F)cc(-c2cc(Nc4ccc(N5CCN(C6COC6)CC5)cn4)c4nccn4n2)c1CO)C3=O [Compound 113, 10-[5-Fluoro-2-(hydroxymethyl)-3-(8-(5-(4-(oxetan-3-yl)piperazin-1-yl)pyridine-2-ylamino)imidazo[1,2-b]pyridazin-6-yl)phenyl]-4,4-dimethyl-7-thia-10-azatricyclo[6.4.0.0^2,6]dodeca-1(8),2(6)-dien-9-one] | 12 nM |
| O=C1c2cc3c(n2CCN1c1cc(F)cc(-c2cc(Nc4ccc(N5CCN(C6COC6)CC5)cn4)c4nccn4c2)c1CO)CCCC3 [Compound 102, 2-(5-Fluoro-2-(hydroxymethyl)-3-(8-(5-(4-(oxetan-3-yl)piperazine-1-yl)pyridine-2-ylamino)imidazo[1,2-a]pyridin-6-yl)phenyl)-3,4,6,7,8,9-hexahydro-pyrazino[1,2-a]indol-1(2H)-one] | 11 nM |

same assay, conditions: anti-IgM stimulated, 20 hour incubation, CD69+ of CD20+ cells, Table 2

| Compound | CD69 Hu Blood FACS IC70 |
| --- | --- |
| O=C1c2cc3c(n2CCN1c1nccc(-c2cc(Nc4ccc(N5CCN(C6COC6)CC5)cn4)c4ncnn4c2)c1CO)CCCC3 [Compound 122, 2-[3-(hydroxymethyl)-4-[8-[[5-[4-(oxetan-3-yl)piperazin-1-yl]-2-pyridyl]amino]-[1,2,4]triazolo[1,5-a]pyridin-6-yl]-2-pyridyl]-3,4,6,7,8,9-hexahydropyrazino[1,2-a]indol-1-one] | 208 nM |
| O=C1c2cc3c(n2CCN1c1cc(F)cc(-c2cc(Nc4ccc(N5CCN(C6COC6)CC5)cn4)c4nc[nH]c4c2)c1CO)CCCC3 [Compound 116, 2-[5-fluoro-2-(hydroxymethyl)-3-[7-[[5-[4-(oxetan-3-yl)piperazin-1-yl]-2-pyridyl]amino]-3H-benzimidazol-5-yl]phenyl]-3,4,6,7,8,9-hexahydropyrazino[1,2-a]indol-1-one] | 1300 nM |
| O=C1c2cc3n(c2CCN1c1cc(F)cc(-c2nc(Nc4ccc(N5CCN(C6COC6)CC5)cc4)c4nc[nH]c4n2)c1CO)CCCC3 [Compound 120, 2-[5-fluoro-2-(hydroxymethyl)-3-[6-[4-[4-(oxetan-3-yl)piperazin-1-yl]anilino]-9H-purin-2-yl]phenyl]-3,4,6,7,8,9-hexahydropyrido[3,4-b]indolizin-1-one] | 1900 nM |
| CN1CCn2nc(Nc3cc(-c4ccnc(N5CCn6c(cc7c6CCCC7)C5=O)c4CO)nn4ccnc34)cc2C1 [Compound 124, 2-[3-(hydroxymethyl)-4-[8-[(5-methyl-6,7-dihydro-4H-pyrazolo[1,5-a]pyrazin-2-yl)amino]imidazo[1,2-b]pyridazin-6-yl]-2-pyridyl]-3,4,6,7,8,9-hexahydropyrazino[1,2-a]indol-1-one] | 333 nM |
| O=C1c2cc3c(n2CCN1c1nccc(-c2cc(Nc4ccc(N5CCN(C6COC6)CC5)cn4)c4nc[nH]c4c2)c1CO)CCCC3 [Compound 118, 2-[3-(hydroxymethyl)-4-[7-[[5-[4-(oxetan-3-yl)piperazin-1-yl]-2-pyridyl]amino]-3H-benzimidazol-5-yl]-2-pyridyl]-3,4,6,7,8,9-hexahydropyrazino[1,2-a]indol-1-one] | 4300 nM |
| O=C1c2cc3c(n2CCN1c1nccc(-c2cc(Nc4ccc(N5CCN(C6COC6)CC5)cn4)c4nccn4c2)c1CO)CCCC3 [Compound 121, 2-[3-(hydroxymethyl)-4-[8-[[5-[4-(oxetan-3-yl)piperazin-1-yl]-2-pyridyl]amino]imidazo[1,2-a]pyridin-6-yl]-2-pyridyl]-3,4,6,7,8,9-hexahydropyrazino[1,2-a]indol-1-one] | 279 nM |
| O=C1c2cc3c(n2CCN1c1cc(F)cc(-c2nc(Nc4ccc(N5CCN(C6COC6)CC5)cc4)c4nc[nH]c4n2)c1CO)CCCC3 [Compound 117, 2-[5-fluoro-2-(hydroxymethyl)-3-[6-[4-[4-(oxetan-3-yl)piperazin-1-yl]anilino]-9H-purin-2-yl]phenyl]-3,4,6,7,8,9-hexahydropyrazino[1,2-a]indol-1-one] | 812 nM |
